Measured values reported in paper PMC11401910, “Dual client binding sites in the ATP-independent chaperone SurA” (Nature Communications, 2024).
Entries after “also recorded” stand apart in the source; their conditions may differ. Read-outs that look alike come from different tables or passages of the source.

Experiments:
SurA-WT [1] = target: T1, SurA-WT (Escherichia coli, UniProt P0ABZ6); details: pH 8
Excerpt: (1 picture or pasted object on this page, not shown here)
Source data are provided as a Source Data file.

SurA = details: read-out: Kd, binding of peptide to SurA; cited from earlier work
Excerpt: (where Ar is an aromatic residue and X is any amino acid), or aromatic-enriched sequences containing an Ar-X-Ar-X-Pro motif. […] Both of these types of peak changes (shifts and/or broadening), can report on binding or conformational changes caused by binding at the location of the corresponding ^13CH3 probe[73],[74].

SurA-WT [2] = target: T1, SurA-WT; type: binding; parameters: made in house; host or cells: E. coli BL21(DE3)
Procedure: All NMR experiments were performed on a 950-MHz Bruker Ascend Avance III HD NMR spectrometer equipped with either a Bruker 3 mm TCI or 5 mm TXO triple-resonance cryogenically cooled probe. Peptide binding experiments were performed in 5 mM EDTA, 20 mM Tris-HCl, pH 8.0 with 5 % (v/v) D2O at 25 °C. Binding experiments using full-length OMP sequences also contained 0.8 M urea. Data was acquired for ~16 h with the exception of OMP-containing experiments which were acquired for ~5 h. […] (2D ^1H-^13C SOFAST-HMQC)[70]. […] Errors in the intensity ratios for each peak between two spectra were obtained by propagating the errors according to:1 δR=R*δX/X+δY/Y where δR is the error in the intensity ratio, |R| is the value of the intensity ratio, X and Y are the intensity values for the peak in the first and second spectrum, respectively, and δX and δY are the noise floor values for the first and second spectrum, respectively.
Z-scores for intensity ratio and CSP data were calculated using:3 Zi=xi−μ/σ where xi is the value for a particular peak, and µ and σ are the mean and standard deviation for all peaks, respectively.
For assignment of SurA-WT Ile and Met residues (43 in total) each residue was individually mutated (Supplementary Table 3), and the effect of the mutation assessed by methyl-TROSY NMR. Samples contained 5–70 µM SurA variant. Assignment experiments (2D ^1H-^13C SOFAST-HMQCs) for Ile or Met variants were performed in 20 mM sodium phosphate, 50 mM NaCl, pH 7.5 (at 35 °C), or 20 mM Tris-HCl, pH 8 (at 25 °C), respectively. […] The ^1H chemical shift assignments were referenced using 2,2-dimethyl-2-silapentane-5-sulphonic acid (DSS) at 25 °C as a standard. The ^13C chemical shifts were referenced indirectly to DSS. NMR assignments have been deposited in the Biological Magnetic Resonance Bank (BMRB) with Entry ID 52180.

[3] = 5 µM SurA-WT, 200 µM peptide (SVD and WEYIPNV 50 µM), 5 mM EDTA, 20 mM Tris-HCl pH 8, 25 °C

T1 sequence (P0ABZ6 other isoform, or with tags, fused parts or gaps): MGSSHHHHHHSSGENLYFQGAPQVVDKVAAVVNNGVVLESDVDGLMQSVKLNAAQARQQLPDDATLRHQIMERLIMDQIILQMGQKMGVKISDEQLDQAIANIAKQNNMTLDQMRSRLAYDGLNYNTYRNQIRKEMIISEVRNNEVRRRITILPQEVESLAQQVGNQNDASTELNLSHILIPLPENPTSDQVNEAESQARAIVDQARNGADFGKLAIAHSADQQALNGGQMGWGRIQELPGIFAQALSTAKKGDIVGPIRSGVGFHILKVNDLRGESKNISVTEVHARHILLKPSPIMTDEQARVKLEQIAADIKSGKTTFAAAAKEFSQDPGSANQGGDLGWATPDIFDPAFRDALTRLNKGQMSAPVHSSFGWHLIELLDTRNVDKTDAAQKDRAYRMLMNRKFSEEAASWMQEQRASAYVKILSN

Compound	Affinity of peptide for SurA-WT by ITC (in words) (SurA-WT [1])	Kd (SurA)	Interaction of peptide with SurA-WT binding sites (core, P1) by methyl-TROSY NMR, in words (SurA-WT [2]; pH 8)	Interaction of peptide with SurA-WT binding sites (core, P1) by methyl-TROSY NMR, in words (SurA-WT [2]; [3])
WEYIPNV [reference compound]	consistent with literature values	1 to 14 µM	severe broadening of the resonance for M231; also recorded: substantial CSPs in the P1 domain	
CSCC[C@H](NC(=O)[C@H](CCCCN)NC(=O)[C@H](CC(N)=O)NC(=O)[C@H](CCSC)NC(=O)[C@H](CCC(N)=O)NC(C)=O)C(=O)NCC(=O)NCC(=O)N[C@@H](Cc1ccccc1)C(=O)N[C@@H](CC(N)=O)C(=O)N[C@@H](CC(C)C)C(=O)N[C@@H](CCCCN)C(=O)N[C@@H](Cc1ccc(O)cc1)C(=O)N[C@@H](CCCNC(=N)N)C(=O)N[C@@H](Cc1ccc(O)cc1)C(=O)N[C@@H](CCC(=O)O)C(N)=O [QMN]				also affect the peak for M231 in the P1 domain; also recorded: binding results in conformational changes associated with core-P1 opening
Ac-KHDTSDYGFSYGAGL-NH2 [KHD]				also affect the peak for M231 in the P1 domain
NLKYRYE [QMN^C-term, C-terminal seven residues of QMN]			demonstrated binding at the core site, but with binding largely abolished at the P1 site	
